Results published in a melting point compilation (Tetko et al.).
Residues, ends and D or L forms follow the SMILES beside them. *: point of attachment. Cbz = O=C(OCc1ccccc1)*; Boc = CC(C)(C)OC(=O)*; OBn = c1ccc(CO*)cc1

| melting point | SMILES |
| --- | --- |
| 291 to 293 °C | CC(C)(C)c1cc(CCC(=O)NN=C(O)c2cc(-c3ccc(C(=O)O)c(C(O)=NNC(=O)CCc4cc(C(C)(C)C)c(O)c(C(C)(C)C)c4)c3)ccc2C(=O)O)cc(C(C)(C)C)c1O |
| 52 to 54 °C | CCCCCCCCCCCCCCCC(=O)OCC(CSCC(NC(=O)OCc1cccc2c1Cc1ccccc1-2)C(=O)OC(C)(C)C)OC(=O)CCCCCCCCCCCCCCC (mixture of isomers) |
| 210 to 212 °C | CCCCc1nn(-c2cc(NC(=O)c3ccccc3)ccc2C(F)(F)F)c(=O)n1Cc1ccc(-c2ccccc2S(=O)(=O)NC(=O)c2ccccc2Cl)cc1F |
| 109 to 110 °C | CCCCCCc1cc(S(C)(=O)=NS(=O)(=O)c2ccc(C)cc2)ccc1O (centres undefined) |
| 59 to 61 °C | CCCCCCCCCCCCCCCCCCOc1cc(OCCCOc2ccccc2)cc(N(CC(=O)OCc2ccccc2)CC(=O)OCc2ccccc2)c1 |
| 54 to 56 °C | CCCCCCCCCCCCCCCCCCOC(=O)C1(C(=O)OCCCCCCCCCCCCCCCCCC)COC2(CC(C)(C)NC(C)(C)C2)OC1 |
| 238 to 241 °C | CSCCC(NC(=O)C(CCC(N)=O)NC(=O)OC(C)(C)C)C(=O)NC(C)C(=O)NC(C(=O)NC(CCCCNC(=O)OCc1ccccc1)C(=O)OCc1ccccc1)C(C)C (centres undefined) (Boc-QMAVK(Cbz)-OBn; configuration not given here) |
| 127 to 129 °C | O=C(O)Cc1cccc(-c2cc(C(=O)CCCCC(=O)c3ccc(OC4OC(CO)C(O)C(O)C4O)c(-c4cccc(CC(=O)O)c4)c3)ccc2OC2OC(CO)C(O)C(O)C2O)c1 (centres undefined) |
| 104 °C | CC(C)OCCOc1ccc(CCCOc2nn(C)cc2CC(=O)O)c(Oc2ncc(C(F)(F)F)cc2Cl)c1 |
| 49 to 51 °C | O=C(OCc1ccc(OCCCCCCCCCCC2c3c(c4ccccc4c4ccccc34)-c3c2c2ccccc2c2ccccc32)cc1)C(=CNC1CC1)C(=O)c1cc(F)c(F)cc1F |
| 112 °C | Cc1cc(-n2ccnc2)c2cccc(OCc3c(Cl)ccc(S(=O)(=O)N4CCCC4C(=O)NCC4CCN(C(=O)CCCC(=O)OC(C)(C)C)CC4)c3Cl)c2n1 (centres undefined) |
| 170 to 172 °C | CCCNc1nc2cccc(C(=O)OCC)c2n1Cc1ccc(-c2ccccc2-c2nnn[nH]2)cc1 |
| 195 to 205 °C | CC(C)(C)c1cc(Cc2cc(C(C)(C)C)cc(C(C)(C)C)c2Op2oc3c(C(C)(C)C)cc(C(C)(C)C)cc3c3cc(C(C)(C)C)cc(C(C)(C)C)c3o2)c(O)c(C(C)(C)C)c1 |
| 60 to 61 °C | CCCCCCCCCCCCc1cc(-c2c(Cl)c(Cl)c(-c3cc(CCCCCCCCCCCC)c(Br)s3)c3nsnc23)sc1Br |
| 57 °C | CC(C)(C)c1cc(CCC(=O)OCC(COCC(COC(=O)CCc2cc(C(C)(C)C)c(O)c(C(C)(C)C)c2)OC(=O)CCc2cc(C(C)(C)C)c(O)c(C(C)(C)C)c2)OC(=O)CCc2cc(C(C)(C)C)c(O)c(C(C)(C)C)c2)cc(C(C)(C)C)c1O (centres undefined) |
| 54 to 56 °C | CCCCC(CC)COc1cc2c3cc(OCC(CC)CCCC)c(OCC(CC)CCCC)cc3c3c(OC)ccc(OC)c3c2cc1OCC(CC)CCCC (centres undefined) |
| 172 to 177 °C | COC(C)c1nc2c(N)nc3ccccc3c2n1CCOCCNC(=O)NCCCCCCCCNC(=O)NCCOCCn1c(C(C)OC)nc2c(N)nc3ccccc3c21 (centres undefined) |
| 160 to 162 °C | CCC(CC)Nc1cc(C)nc(Oc2c(C)cc(C)cc2C)c1[N+](=O)[O-] |

| melting point | SMILES |
| --- | --- |
| 124 to 128 °C | CCO[Si](CCCCOc1ccc(S(=O)(=O)c2ccc(OCCCC[Si](OCC)(OCC)OCC)cc2Cc2ccc(C(F)(F)F)cc2)c(Cc2ccc(C(F)(F)F)cc2)c1)(OCC)OCC |
| 163 to 165 °C | COc1cc(OC)c(C=CC(c2ccc(OC)c(NC(=O)CCl)c2)S(=O)(=O)C(C=Cc2c(OC)cc(OC)cc2OC)c2ccc(OC)c(NC(=O)CCl)c2)c(OC)c1 (centres undefined) |
| 172 to 173 °C | O=c1c(CCCc2cccnc2)cc2cccnc2n1-c1cccc([N+](=O)[O-])c1 |
| 165 to 172 °C | Cc1cc(Oc2ccc3nc(COc4ccc(CC(Nc5ccccc5C(=O)c5ccccc5)C(=O)O)cc4)n(C)c3c2)cc(C)c1NC(=O)Nc1ccc(C(F)(F)F)cc1 (centres undefined) |
| 80 °C | CCCCCCCCNC(=O)CO |
| 210 to 212 °C | CCCCCCCCCCCCCCCCS(=O)(=O)Nc1ccc2c(c1)C(NS(=O)(=O)CCCCCCCCCCCCCCCC)(c1ccccc1)C=N2 (centres undefined) |
| 69 to 70 °C | CCCCCCCCCCOc1cc2c3cc(OCCCCCCCCCC)c(OCCCCCCCCCC)cc3c3c(OC)ccc(OC)c3c2cc1OCCCCCCCCCC |
| 209 to 210 °C | CC(=O)c1ccc(-n2c(-c3sc(Nc4ccc(Cl)cc4)nc3C)nc3ccccc3c2=O)cc1 |
| 107 to 109 °C | [C-]#[N+]Cc1c(OC)cc(OC)cc1OC |
| 129 to 131 °C | CCCCCCCCOc1ccc(NS(=O)(=O)c2cc(C(C)(C)CC(C)(C)C)ccc2OCCCCCCCC)cc1S(=O)(=O)NCC(C)c1nn2nc(C)c(Cl)c2[nH]1 (centres undefined) |
| 247 to 249 °C | CC(C)(C)CC(C)(C)c1cc(-n2nc3ccc(-c4ccc(-c5ccc6nn(-c7cc(C(C)(C)CC(C)(C)C)cc(C(C)(C)c8ccccc8)c7O)nc6c5)cc4)cc3n2)c(O)c(C(C)(C)c2ccccc2)c1 |
| 288 to 289 °C | Ic1cc(I)c(OCCOc2c(I)cc(I)cc2I)c(I)c1 |
| 104 to 106 °C | CC(C)(C)c1cc(CCC(=O)OCCOc2ccc(C(C)(C)c3ccc(OCCOC(=O)CCc4cc(C(C)(C)C)c(O)c(C(C)(C)C)c4)cc3)cc2)cc(C(C)(C)C)c1O |
| 211 to 212 °C | CC(C)(C)c1cc(-c2cc(C(C)(C)C)cc(C(C)(C)C)c2OCP(=O)(c2ccccc2)c2ccccc2)c(OCP(=O)(c2ccccc2)c2ccccc2)c(C(C)(C)C)c1 |
| 103 to 104 °C | CC(=O)OCC1OC(SCCCCCCOC2CCC3(C)C(=CCC4C3CCC3(C)C(C(C)CCCC(C)C)CCC43)C2)C(OC(C)=O)C(OC(C)=O)C1OC(C)=O (centres undefined) |
| 179 to 180 °C | COc1cc(OC)c(/C=C/C(c2ccc(OC)c(NC(=O)C(C)OC(C)=O)c2)S(=O)(=O)C(/C=C/c2c(OC)cc(OC)cc2OC)c2ccc(OC)c(NC(=O)C(C)OC(C)=O)c2)c(OC)c1 (centres undefined) |
| 192 to 194 °C | COc1cc(OC)c(/C=C/C(c2ccc(OC)c(NC(=O)COC(C)=O)c2)S(=O)(=O)C(/C=C/c2c(OC)cc(OC)cc2OC)c2ccc(OC)c(NC(=O)COC(C)=O)c2)c(OC)c1 (centres undefined) |

The remaining lines, values behind:

| SMILES | melting point |
| --- | --- |
| Brc1cc(C(Br)(Br)C(Br)(Br)C(Br)(Br)c2ccccc2)c(Br)c(Br)c1Br | 309 to 311 °C |
| O=C(Nc1ccc(Cl)cc1)c1ccc(-c2nn[nH]n2)c(NC(=O)c2sc3ccccc3c2Cl)c1 | > 250 °C |
| C=CCN(CC=C)c1nc(NC(C)(C)CC(C)(C)C)nc(N(CCCCCCN(c2nc(NC(C)(C)CC(C)(C)C)nc(N(CC=C)CC=C)n2)C2CC(C)(C)NC(C)(C)C2)C2CC(C)(C)NC(C)(C)C2)n1 | 113 to 115 °C |
| COC(=O)CNC(=O)[C@H](NC(=O)[C@@H](CSC(c1ccccc1)(c1ccccc1)c1ccccc1)NC(=O)[C@@H](C)NC(=O)OCC1c2ccccc2-c2ccccc21)C(C)C | 195 to 197 °C |
| NS(=O)(=O)c1cccc(-c2noc(-c3cnn4ccc(-c5ccc(C(F)(F)F)cc5)nc34)n2)c1 | 270 °C |
| CS(C)(=O)=NC(=O)c1cc(Oc2ccc(C(F)(F)F)cc2Cl)ccc1[N+](=O)[O-] | 122 °C |
| C1CCC2NCCC2C1 (centres undefined) | 85 °C |
| NC(=O)OCCCN1CCN2c3ccccc3Cc3ccccc3C2C1 (centres undefined) | 160 to 161 °C |
| CSc1ccccc1C(=O)Nc1ccc(C(=O)N2Cc3cccn3Cc3ccccc32)cc1 | 171 to 174 °C |
| CC1(C)CC(OC(=O)CCCCCCCCC(=O)OC2CC(C)(C)N(OC3CCCCCCCCCCC3)C(C)(C)C2)CC(C)(C)N1OC1CCCCCCCCCCC1 | 70 to 78 °C |
| CCCCOC(=O)c1ccc(=O)[nH]n1 | 79 to 80 °C |
| CCC(Cc1c(I)cc(I)c(NC(=O)CN2CCN(CC(=O)O)CCN(CC(=O)O)CCN(CC(=O)O)CC2)c1I)C(=O)O (centres undefined) | 230 °C |
| N=S(=O)(C=Cc1ccccc1N)c1ccccc1 (centres undefined) | 95 to 96 °C |
| Nc1ncc(Br)cc1[N+](=O)[O-] | 209 °C |
| FC(F)(F)C(F)(F)C(F)(F)C(F)(F)C(F)(F)C(F)(F)c1nc2c(Br)sc(Br)c2nc1C(F)(F)C(F)(F)C(F)(F)C(F)(F)C(F)(F)C(F)(F)F | 46 to 47 °C |
| O=S(=NCCN1CCOCC1)(c1cccs1)c1cccs1 | 190 °C |
| NS(=O)(=O)c1ccc(-c2c(-c3ccccc3)noc2CO[N+](=O)[O-])cc1 | 47 to 50 °C |
| CN1CCC(c2nn(-c3ccncc3)c3ccccc23)CC1 | 205 to 207 °C |
| CS(=N)(=O)Cc1ccc(Cl)nc1 (centres undefined) | 134 to 136 °C |
| NC(=O)c1cnn(-c2ncc(C(F)(F)F)cc2Cl)c1NC(=O)C1(F)CC1 | 204 °C |
| CC(C)[C@H](NC(=O)N1CCN(c2ccccc2)CC1)C(=O)N[C@@H](Cc1ccccc1)[C@@H](O)[C@H](O)[C@H](Cc1ccccc1)NC(=O)[C@@H](NC(=O)N1CCN(c2ccccc2)CC1)C(C)C | 165 to 166 °C |
| CCNC(Cc1cc(I)c(Oc2cc(I)c(O)c(I)c2)c(I)c1)C(=O)O (centres undefined) | 191 to 193 °C |
| CC(C)C(NS(=O)(=O)N(C)Cc1ccccn1)C(=O)NC(Cc1ccccc1)C(O)C(O)C(Cc1ccccc1)NC(=O)C(NS(=O)(=O)N(C)Cc1ccccn1)C(C)C (centres undefined) | 85 to 89 °C |
| O=P(O)(O)CN(CP(=O)(O)O)CP(=O)(O)O | 215 °C |
| O=S(=O)(C(/C=C/c1ccc(Br)cc1)c1ccc(I)cc1)C(/C=C/c1ccc(Br)cc1)c1ccc(I)cc1 (centres undefined) | 217 to 219 °C |
| CC(OC(C)C(I)=C(I)I)C(I)=C(I)I (centres undefined) | 43.5 to 44.5 °C |
| CC(CCC(=O)NCCNCCCNC(=O)CN1CCN(CC(=O)O)CCN(CC(=O)O)CCN(CC(=O)O)CC1)C1CCC2C3C(O)CC4CC(O)CCC4(C)C3CC(O)C12C (centres undefined) | 154 °C |
| CC(=O)N1C(C)(C)CC(OC(=O)C(Cc2cc(C(C)(C)C)c(O)c(C(C)(C)C)c2)(Cc2cc(C(C)(C)C)c(O)c(C(C)(C)C)c2)C(=O)OC2CC(C)(C)N(C(C)=O)C(C)(C)C2)CC1(C)C | 202 °C |
| CC(C)(C)c1cc(-c2cc(C(C)(C)C)cc(C(C)(C)C)c2Op2oc3ccccc3c3ccccc3o2)c(Op2oc3ccccc3c3ccccc3o2)c(C(C)(C)C)c1 | 80 °C |
